Patent publication US20230045151A1, “COMPOSITIONS AND METHODS” (MONASH UNIVERSITY, priority 2020, published 2023)

Legend:
[1] = Targeted metabolomics for PCS after L-tyrosine feeding; format: in vivo, mouse
Procedure: Mice were fed with L-tyrosine in drinking water (100 mg/kg/day) for 14 days, after which faeces were collected. BALF samples were collected after HDM immunization as per FIG. 1. […] Data represent samples from one experiment. All data are presented as mean values+/−SEM.
Mice received water as a control or L-tyrosine (reagent grade, ≥98% Sigma-Aldrich, St. Louis, Mo.) resuspended in drinking water under sterile conditions at the concentration of 100 mg/kg/day or 500 mg/kg/day (based on the assumption of a mouse consuming 4 ml of water daily). All mice received the treatment 2 weeks prior and throughout the experiment. […] Control mice received 200 μl of saline. For experiments employing antibiotic treatment, 3-week old mice were treated with a combination enrofloxacin (10 mg/kg/day) and amoxicillin with clavulanic acid (1 mg/kg/day) for one week, followed by one week of only amoxicillin with clavulanic acid (1 mg/kg/day). Then, mice were then put on L-tyrosine diet in drinking water for two weeks followed by HDM exposure as before. […]
25 μL of plasma samples were extracted with 100 μL of chilled methanol containing internal standard (PCS-d4 at 500 ng/ml plasma concentration), shaken on ice for 30 min and centrifuged at 4° C. for 10 min. […] Peak integration and quantitation were performed using Tracefinder 4.1 application (Thermo Scientific).

[2] = system: C57BL6/J mice exposed intranasally to house dust mite extract (HDM); test: HDM animal model of allergic airway inflammation; format: in vivo, mouse
Procedure: Mice received water as a control or L-tyrosine (reagent grade, ≥98% Sigma-Aldrich, St. Louis, Mo.) resuspended in drinking water under sterile conditions at the concentration of 100 mg/kg/day or 500 mg/kg/day (based on the assumption of a mouse consuming 4 ml of water daily). All mice received the treatment 2 weeks prior and throughout the experiment. […] Control mice received 200 μl of saline. […]. For experiments employing antibiotic treatment, 3-week old mice were treated with a combination enrofloxacin (10 mg/kg/day) and amoxicillin with clavulanic acid (1 mg/kg/day) for one week, followed by one week of only amoxicillin with clavulanic acid (1 mg/kg/day). Then, mice were then put on L-tyrosine diet in drinking water for two weeks followed by HDM exposure as before. During this time, mice were maintained on antibiotic treatment with amoxicillin/clavulanic acid until end of experiment.
Mice were anaesthetised by the inhalation of 4% isoflurane in oxygen for 3-5 minutes. 20 μg of protein content of crude house dust mite extract (HDM) (Greer Laboratories Inc., Lenoir, N.C.) in 20 μl of sterile phosphate-buffered saline (PBS) (Gibco™) was applied intranasally on days 0, 11, 12 and 13. Mice were humanely sacrificed with the lethal dose of pentobarbital (Streuli Pharma AG, Uznach, Switzerland) on day 14.
Bronchoalveolar lavage fluid (BALF) was collected by flushing airways with 0.5 ml PBS supplemented with 0.2% bovine serum albumin (Sigma-Aldrich, St. Louis, Mo.). Total cell number was determined with Coulter Counter (IG Instrumenten-Gesellschaft AG, Basel, Switzerland) while differential cell staining performed on cytospins stained with Diff-Quik solution (Dade Behring, Siemens Healthcare Diagnostics, Deerfield, Ill.). Percentages of neutrophils, macrophages, lymphocytes and eosinophils were assessed by counting 200 cells per sample.
Concentrations of interleukin-4, -5, -13, -17 and IFN-γ in culture supernatants were analysed with mouse Ready-Set-Go!™ ELISA kits (eBioscience™, San Diego, Calif.) according to manufacturer's instructions. To measure the levels of HDM-specific IgG1 and IgE in plasma, half area 96-well plates (Corning) were coated with HDM (10 μg in PBS) overnight at 4° C., followed by the incubation of samples for 2 hours at RT, and the addition of alkaline-phophatase-conjugated goat anti-mouse IgE or IgG1 (both from SouthernBiotech, Birmingham, Ala.; diluted at 1 μg ml-1 in PBS 0.2% BSA) for 2 hours at RT. 4-nitrophenyl phosphate sodium salt hexahydrate (pNPP) (Sigma) was used as a substrate, and the colorimetric reaction was read at 405 nm on the Synergy H1 microplate reader (Biotek, Luzern, Switzerland). To measure the levels of total IgA and IgM as well as hen egg lysozyme (HEL)-specific IgA and IgM in mouse faeces, faecal pellets were homogenized in 0.8 ml cold PBS, centrifuged at 400 g for 5 minutes to remove large debris, filtered through 40 μm cell strainer and centrifuged at 8000 g for 10 minutes to pellet bacteria. The supernatant was collected and loaded for 2 hours at RT on 96-well half area plates coated a day before at 4° C. with anti-IgA (Southern Biotech; 2 μg ml-1), anti-IgM (SouthernBiotech; 2 μg ml-1) or HEL protein (Sigma-Aldrich; 10 μg/ml). This step was followed by the addition of alkalinephophatase-conjugated goat anti-mouse IgA or IgM (both at 1 μg ml-1 in PBS 0.2% BSA) for 2 hours at RT. 4-nitrophenyl phosphate sodium salt hexahydrate (pNPP) (Sigma) was used as a substrate, and the colorimetric reaction was read at 405 nm as before.
Mediastinal lymph nodes were filtered through a 40 μm cell strainer, washed with PBS supplemented with 1% fetal bovine serum and 2 mM EDTA (Invitrogen) (MACS buffer). Lungs were finely cut with scissors, digested with Collagenase IV (Gibco™) in Iscove's modified Dulbecco's medium (IMDM, Gibco™) for 50 min at 37° C. and processed as the lymph nodes.

[3] = L-tyrosine oral in drinking water

N[C@@H](Cc1ccc(O)cc1)C(=O)O [L-tyrosine]
PCS concentrations in the faeces ([1]; L-tyrosine in drinking water 100 mg/kg/day for 14 days): increase
PCS concentrations in the airways (BALF) ([1]; L-tyrosine in drinking water 100 mg/kg/day, BALF after HDM immunization): increase
FoxP3+ Treg cells in the lungs [2, 3]: not altered
numbers of T helper cells in the lungs [2, 3]: not altered
recruitment of DCs (lungs) [2, 3]: reduced
recruitment of neutrophils (BALF) [2, 3]: reduced
recruitment of eosinophils (BALF) ([2]; L-tyrosine oral in drinking water, 2 weeks prior and throughout, vs water): reduced
IL-5 concentrations in culture supernatants of mediastinal LNs ([2]; L-tyrosine oral in drinking water, not reaching statistical significance): trend towards a decrease
production of IL-13 by restimulated mediastinal LNs ([2]; L-tyrosine oral in drinking water, restimulated with HDM for 4 days): reduced
protective effect of L-tyrosine under antibiotic treatment (eosinophils, DCs, IL-5 in BALF) ([2]; L-tyrosine oral plus enrofloxacin and amoxicillin/clavulanic acid (microbiota depletion)): abrogated
CCL20 concentrations in the BALF ([2]; L-tyrosine-treated wild-type mice exposed to HDM): reduced
